These results are taken from US12209145B2, “PCSK9 antagonist compounds” (Merck Sharp & Dohme LLC, priority 2018, dated 2025).

For orientation: Ki means a dissociation constant, usually derived from enzyme kinetics or from competition with a known ligand.

Assay type in all cases: binding
Test [1] deals with T1, PCSK9 (Homo sapiens, UniProt Q8NBP7).
T1 construct: Biotinylated PCSK9 was obtained commercially; purchased
Put plainly: PCSK9 Alexa FRET Standard TR-FRET assay (displacement of AlexaFluor647 tagged cyclic peptide Reagent A). The protocol: The following is a description of the assays used to determine activity of compounds of the invention, and any comparator compounds reported, toward PCSK9 antagonism. Biotinylated PCSK9 was obtained commercially.
Alexa FRET Standard TR-FRET
A solution containing 1 nM biotinylated PCSK9+2.5 nM Lance Streptavidin Europium (Strep-Eu) is made in 50 mM HEPES pH 7.4, 0.15 M NaCl, 5 mM CaCl2, 0.01% BSA, and 0.01% Surfactant P20. A separate solution containing 40 nM of the AlexaFluor tagged cyclic peptide is made in the same buffer system. An Echo is used to transfer 0.750 ul of compound to an assay plate followed by the addition of 15 ul of PCSK9+Stept-Eu and 15 ul of AF peptide. The final assay volume is 30.750 ul containing 0.5 nM PCSK9, 1.25 nM Strep-Eu, and 20 nM AF cyclic peptide. The reaction is incubated at room temperature for at least two hours prior to fluorescence measurements using an Envision Multilabel Reader. […] values are determined by fitting data to a sigmoidal dose-response curve using nonlinear regression. Ki is then calculated from the IC50 and the KD of AF cyclic peptide. Counts (B-counts) of the europium-labeled PCSK9 are followed to observe if compounds are adversely PCSK9. A fall off of the B-counts likely indicates a false positive of inhibition. Data from this procedure is reported as “A=‘numerical value’ (nanomolar)”
Activity data obtained by one or both of the above-described procedures is reported for selected example compounds of the invention in the following format: Example No.: A (standard TR Fret)=‘numerical value’; P (Alexa Fret plus standard TR Fret)=‘numerical value’/, note that all values reported are nanomolar.
In general terms: TR-FRET usually uses a lanthanide donor and a delayed reading to cut background.

Test [2] addresses T1, PCSK9. In words: PCSK9 Alexa FRET Ultra TR-FRET assay (displacement of AlexaFluor647 tagged cyclic peptide). The note with it: Ki Ultra, 0.5 nM biotinylated PCSK9, 960 nM AF cyclic peptide; Ki calculated from IC50 and KD of AF peptide. Summed up: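 Biotinylated PCSK9 (0.5 nM final) with 1.25 nM Strep-Eu and 960 nM AlexaFluor-tagged cyclic peptide in HEPES pH 7.4, NaCl, CaCl2, BSA, P20; ≥2 h at room temperature. IC50 from sigmoidal fit, converted to Ki (nM) using peptide KD; falling Eu counts flag false positives.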

Test [3] deals with T1, PCSK9. In words: PCSK9 Alexa FRET Plus TR-FRET assay (displacement of AlexaFluor647 tagged cyclic peptide Reagent B). The note with it: Ki Plus, 0.5 nM biotinylated PCSK9, 960 nM AF cyclic peptide Reagent B; Ki calculated from IC50 and KD of AF peptide. Summed up:
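TR-FRET displacement using 0.5 nM biotinylated PCSK9 with 1.25 nM streptavidin-Eu and 960 nM AlexaFluor-tagged cyclic peptide in pH 7.4 HEPES with CaCl2, at least 2 h at RT. IC50 from sigmoidal fit, converted to Ki using the peptide KD; falling Eu counts flag false positives.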

T1 sequence (Q8NBP7 153-692): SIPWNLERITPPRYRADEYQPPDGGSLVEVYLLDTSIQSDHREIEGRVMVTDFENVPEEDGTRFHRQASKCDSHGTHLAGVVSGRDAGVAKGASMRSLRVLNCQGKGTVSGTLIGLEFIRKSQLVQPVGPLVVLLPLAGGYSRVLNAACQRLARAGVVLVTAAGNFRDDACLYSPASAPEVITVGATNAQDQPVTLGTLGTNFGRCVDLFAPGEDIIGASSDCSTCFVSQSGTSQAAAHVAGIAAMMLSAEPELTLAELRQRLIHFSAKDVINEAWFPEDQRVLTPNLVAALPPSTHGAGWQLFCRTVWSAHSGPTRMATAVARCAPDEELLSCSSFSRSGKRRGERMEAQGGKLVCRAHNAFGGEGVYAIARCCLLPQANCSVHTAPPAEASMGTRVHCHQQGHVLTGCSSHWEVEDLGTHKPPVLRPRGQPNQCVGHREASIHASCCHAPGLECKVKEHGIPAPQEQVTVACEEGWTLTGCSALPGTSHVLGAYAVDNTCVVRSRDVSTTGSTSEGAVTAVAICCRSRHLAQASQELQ

With `COc1ccc(C[C@@H]2NC(=O)[C@H]([C@@H](C)O)NC(=O)[C@@H]3[C@@H]4CCN3C(=O)[C@@H]3Cc5cn(c6ccc(F)cc56)CCCCOc5cc(ccc5CNC(=O)CCC(=O)N[C@@H](C)C(=O)N[C@H](CNC(=O)CCOCCOCC[N+](C)(C)C)C(=O)N[C@@H](Cc5cccc(c5)CNC(=O)CO4)C(=O)N3)CCNC(=O)[C@]3(C)CCCN3C2=O)cc1` [Ex-55], the Ki on PCSK9 [1] was less than 1.26 nM; on PCSK9 [2], 0.238 nM; on PCSK9 [3], 0.0724 nM.
Regarding `COc1ccc(C[C@@H]2NC(=O)[C@H]([C@@H](C)O)NC(=O)[C@@H]3[C@@H]4CCN3C(=O)[C@@H]3Cc5cn(c6ccc(F)cc56)CCCCCCN(Cc5ccc(cc5)CCNC(=O)[C@]5(C)CCCN5C2=O)C(=O)CCC(=O)N[C@@H](C)C(=O)N[C@H](CNC(=O)Cc2cccc(OCCC[N+](C)(C)C)c2)C(=O)N[C@@H](Cc2cccc(c2)CNC(=O)CO4)C(=O)N3)cc1` [Ex-56], the Ki was less than 1.26 nM on PCSK9 [1], 0.00481 nM on PCSK9 [2] and 0.0224 nM at PCSK9 [3].
Regarding `COCCC[N+](C)(C)CCCCCC(=O)NC[C@H]1NC(=O)[C@H](C)NC(=O)CCC(=O)N2CCCCCCn3cc(c4cc(F)ccc43)C[C@@H]3NC(=O)[C@H](Cc4cccc(c4)CNC(=O)CO[C@H]4CCN(C3=O)[C@@H]4C(=O)N[C@@H]([C@@H](C)O)C(=O)N[C@@H](Cc3ccc(OC)cc3)C(=O)N3CCC[C@@]3(C)C(=O)NCCc3ccc(cc3)C2)NC1=O` [Ex-57], the Ki at PCSK9 [1] is less than 1.26 nM; on PCSK9 [2] it was 0.00162 nM; on PCSK9 [3], less than 0.00558 nM.
`COCC[N+](C)(C)CCCCCC(=O)NC[C@H]1NC(=O)[C@H](C)NC(=O)CCC(=O)N2CCCCCCn3cc(c4cc(F)ccc43)C[C@@H]3NC(=O)[C@H](Cc4cccc(c4)CNC(=O)CO[C@H]4CCN(C3=O)[C@@H]4C(=O)N[C@@H]([C@@H](C)O)C(=O)N[C@@H](Cc3ccc(OC)cc3)C(=O)N3CCC[C@@]3(C)C(=O)NCCc3ccc(cc3)C2)NC1=O` [Ex-58]: the inhibitory constant (Ki) was less than 1.26 nM at PCSK9 [1], 0.00196 nM at PCSK9 [2] and 0.00773 nM at PCSK9 [3].
